# Measured values as given in ChEMBL document CHEMBL4813953, “Kinetics-Driven Drug Design Strategy for Next-Generation Acetylcholinesterase Inhibitors to Clinical Candidate” (J Med Chem, 2021).
# The source made the active and inactive calls. No cut-off for these calls is given here.
# Key:
# Rattus norvegicus = species on record: Rattus norvegicus; assay: Selectivity index, ratio of IC50 for rat serum BuChE using S-butyrylthiocholine iodide as substrate to IC50 for rat cortex homogenate acetylcholinesterase using acetylthiocholine iodide as substrate
# [1] = Genotoxicity in Salmonella typhimurium TA98 by Ames test; assay type: toxicity; details: salmonella enterica subsp. enterica serovar typhimurium
# [2] = target: Voltage-gated inwardly rectifying potassium channel KCNH2 (Homo sapiens, UniProt Q12809); assay: Inhibition of human ERG
# [3] = Tmax in Sprague-Dawley rat plasma at 10 mg/kg, po; assay type: ADME, organism-based
# Mus musculus [4] = assay: Cognitive enhancing effect in mouse model of scopolamine-induced memory impairment assessed as reduction in number of errors at 1 to 2 mg/kg, IG QD for 3 days by channel water maze test; assay type: functional, organism-based; details: dose 1-2 mg/kg, time 3.0 day
# [5] = AUC (0 to infinity) in Beagle dog at 0.25 mg/kg, iv; assay type: ADME, organism-based, Canis lupus familiaris; set-up: route intravenous, time infinity, dose 0.25 mg/kg; details: in vivo
# [6] = AUC(0 to t) in Sprague-Dawley rat brain at 10 mg/kg, po; assay type: ADME, organism-based; set-up: dose 10 mg/kg
# [7] = Ratio of drug concentration in brain to plasma of Sprague-Dawley rat at 10 mg/kg, po; assay type: ADME, organism-based; details: read-out: BPR
# [8] = Cmax in human plasma at 1 mg, po; assay type: ADME, cell-free; set-up: route oral, dose 1 mg
# [9] = Terminal half life in human plasma at 4 mg, po; assay type: ADME, cell-free; details: read-out: beta t1/2 (converted)
# [10] = Genotoxicity in Salmonella typhimurium TA1535 by Ames test; assay type: toxicity; details: salmonella enterica subsp. enterica serovar typhimurium
# [11] = Toxicity in Beagle dog assessed as animal death at 1 to 20 mg/kg, po; assay type: organism-based, Canis lupus familiaris; details: in vivo, dose 1-20 mg/kg
# Acetylcholinesterase = Acetylcholinesterase (Homo sapiens, UniProt P22303); assay: Binding affinity to CM5 sensor chip immobilized recombinant human AChE assessed as dissociation constant at 298.15 K by surface plasmon resonance assay
# [12] = Half life in Beagle dog at 0.25 mg/kg, po; assay type: ADME, organism-based, Canis lupus familiaris; details: in vivo
# [13] = Tmax in Sprague-Dawley rat at 0.5 mg/kg, po; assay type: ADME, organism-based; details: in vivo
# [14] = Tmax in human plasma at 12 mg, po; assay type: ADME, cell-free
# Mus musculus [15] = assay: Improvement in learning and spatial memory in APP/PS1 double mutant-transgenic mouse model assessed as increase in number of platform crossings at 0.5 to 1 mg/kg, po for 3 months measured during probe trial by Morris water maze test; assay type: functional, organism-based; details: dose 0.5-1 mg/kg
# [16] = Cardiotoxicity in Beagle dog assessed as effect on PR interval at 0.1 to 1 mg/kg; assay type: toxicity, organism-based, Canis lupus familiaris; details: in vivo, dose 0.1-1 mg/kg
# [17] = Terminal half life in human plasma at 2 mg, po; assay type: ADME, cell-free; details: read-out: beta t1/2 (converted)
# [18] = AUC (0 to infinity) in Beagle dog at 0.25 mg/kg, po; assay type: ADME, organism-based, Canis lupus familiaris; set-up: route oral, time infinity, dose 0.25 mg/kg; details: in vivo
# [19] = Tmax in Beagle dog at 0.25 mg/kg, po; assay type: ADME, organism-based, Canis lupus familiaris; details: in vivo
# [20] = Cmax in human plasma at 4 mg, po; assay type: ADME, cell-free; set-up: route oral, dose 4 mg
# Cytochrome P450 2D6 = Cytochrome P450 2D6 (Homo sapiens, UniProt P10635); assay: Inhibition of CYP2D6 in human hepatocytes; assay type: ADME, cell-based, Hepatocyte
# [21] = Toxicity in Beagle dog assessed as effect on body temperature at 0.1 to 1 mg/kg; assay type: organism-based, Canis lupus familiaris; details: in vivo, dose 0.1-1 mg/kg
# [22] = Cardiotoxicity in Beagle dog assessed as effect on QT interval at 0.1 to 1 mg/kg; assay type: toxicity, organism-based, Canis lupus familiaris; details: in vivo, dose 0.1-1 mg/kg
# Mus musculus [23] = assay: Cognitive enhancing effect in ig dosed APP/PS1 double mutant-transgenic mouse model assessed as increase in spontaneous alteration administered once daily by Y-maze test; assay type: functional, organism-based; details: dose 0.25-1 mg/kg
# [24] = Terminal half life in human plasma at 8 mg, po; assay type: ADME, cell-free; details: read-out: beta t1/2 (converted)
# Mus musculus [25] = assay: Cognitive enhancing effect in mouse model of scopolamine-induced memory impairment assessed as reduction in escape latency time at 0.5 to 2 mg/kg, IG QD for 3 days by channel water maze test; assay type: functional, organism-based; details: dose 0.5-2 mg/kg, time 3.0 day
# [26] = AUC (0 to t) in Sprague-Dawley rat plasma at 10 mg/kg, po; assay type: ADME, organism-based; set-up: dose 10 mg/kg
# Cytochrome P450 2C8 = target: T1, Cytochrome P450 2C8 (Homo sapiens, UniProt P10632); assay: Inhibition of CYP2C8 in human hepatocytes; assay type: ADME, cell-based, Hepatocyte
# T1 sequence (P10632 whole entry): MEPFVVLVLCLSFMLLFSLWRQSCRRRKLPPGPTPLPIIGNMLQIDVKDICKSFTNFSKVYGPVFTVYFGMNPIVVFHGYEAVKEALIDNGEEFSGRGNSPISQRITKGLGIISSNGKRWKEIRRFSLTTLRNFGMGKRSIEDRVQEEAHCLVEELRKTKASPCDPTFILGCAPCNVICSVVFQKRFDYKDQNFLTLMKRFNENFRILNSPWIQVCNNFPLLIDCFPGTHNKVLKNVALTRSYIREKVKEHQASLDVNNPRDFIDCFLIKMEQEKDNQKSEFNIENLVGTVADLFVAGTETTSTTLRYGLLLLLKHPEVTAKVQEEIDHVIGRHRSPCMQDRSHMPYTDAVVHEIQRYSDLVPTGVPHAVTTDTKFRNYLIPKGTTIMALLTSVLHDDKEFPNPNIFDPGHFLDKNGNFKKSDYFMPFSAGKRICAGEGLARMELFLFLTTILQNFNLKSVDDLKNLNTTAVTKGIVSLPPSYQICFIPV
# [27] = Permeability in human Caco-2 cells at 2 to 50 uM; assay type: ADME, cell-based; details: dose 2-50 µM, read-out: permeability
# [28] = Tmax in human plasma at 2 mg, po; assay type: ADME, cell-free
# [29] = Mutagenecity against CHL cells; assay type: ADME, cell-based, Cricetulus griseus; details: chinese hamster
# [30] = Protein binding in rat plasma; assay type: ADME, cell-free; details: read-out: PPB (converted)
# [31] = MRT in Sprague-Dawley rat brain at 10 mg/kg, po; assay type: ADME, organism-based
# [32] = Clearance in Sprague-Dawley rat at 0.5 mg/kg, iv; assay type: ADME, organism-based; details: in vivo
# [33] = Cmax in human plasma at 8 mg, po; assay type: ADME, cell-free; set-up: route oral, dose 8 mg
# [34] = MRT (0 to infinity) in Beagle dog at 0.25 mg/kg, iv; assay type: ADME, organism-based, Canis lupus familiaris; details: in vivo
# [35] = Volume of distribution at steady state in Sprague-Dawley rat at 0.5 mg/kg, po or iv; assay type: ADME, organism-based; details: in vivo, read-out: Vdss
# [36] = Cmax in Sprague-Dawley rat at 0.5 mg/kg, po; assay type: ADME, organism-based; set-up: route oral, dose 0.5 mg/kg; details: in vivo
# [37] = AUC (0 to infinity) in Sprague-Dawley rat plasma at 10 mg/kg, po; assay type: ADME, organism-based; set-up: route oral, time infinity, dose 10 mg/kg
# [38] = Protein binding in dog plasma; assay type: ADME, cell-free, Canis lupus familiaris; details: read-out: PPB (converted)
# [39] = MRT in Sprague-Dawley rat plasma at 10 mg/kg, po; assay type: ADME, organism-based
# [40] = Induction of CYP3A4 expression in human hepatocytes at 10 uM; assay type: ADME, cell-based, Hepatocyte
# [41] = Half life in Sprague-Dawley rat at 0.5 mg/kg, po; assay type: ADME, organism-based; details: in vivo
# Sequence of Cytochrome P450 2D6 (P10635 whole entry): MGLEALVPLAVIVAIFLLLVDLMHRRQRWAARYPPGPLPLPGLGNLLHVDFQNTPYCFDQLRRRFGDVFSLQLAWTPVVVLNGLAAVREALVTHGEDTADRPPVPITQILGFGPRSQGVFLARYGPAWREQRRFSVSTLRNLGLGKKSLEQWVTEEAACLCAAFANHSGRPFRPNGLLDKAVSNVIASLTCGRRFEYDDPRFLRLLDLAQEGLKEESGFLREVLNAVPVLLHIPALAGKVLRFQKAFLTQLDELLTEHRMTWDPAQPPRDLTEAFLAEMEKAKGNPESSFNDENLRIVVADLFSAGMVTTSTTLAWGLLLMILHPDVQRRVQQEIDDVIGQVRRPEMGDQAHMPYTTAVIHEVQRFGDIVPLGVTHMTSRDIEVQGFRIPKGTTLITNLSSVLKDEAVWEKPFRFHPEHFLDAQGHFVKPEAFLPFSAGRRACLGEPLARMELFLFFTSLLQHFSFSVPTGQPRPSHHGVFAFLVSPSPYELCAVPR
# Sequence of Voltage-gated inwardly rectifying potassium channel KCNH2 (Q12809 whole entry): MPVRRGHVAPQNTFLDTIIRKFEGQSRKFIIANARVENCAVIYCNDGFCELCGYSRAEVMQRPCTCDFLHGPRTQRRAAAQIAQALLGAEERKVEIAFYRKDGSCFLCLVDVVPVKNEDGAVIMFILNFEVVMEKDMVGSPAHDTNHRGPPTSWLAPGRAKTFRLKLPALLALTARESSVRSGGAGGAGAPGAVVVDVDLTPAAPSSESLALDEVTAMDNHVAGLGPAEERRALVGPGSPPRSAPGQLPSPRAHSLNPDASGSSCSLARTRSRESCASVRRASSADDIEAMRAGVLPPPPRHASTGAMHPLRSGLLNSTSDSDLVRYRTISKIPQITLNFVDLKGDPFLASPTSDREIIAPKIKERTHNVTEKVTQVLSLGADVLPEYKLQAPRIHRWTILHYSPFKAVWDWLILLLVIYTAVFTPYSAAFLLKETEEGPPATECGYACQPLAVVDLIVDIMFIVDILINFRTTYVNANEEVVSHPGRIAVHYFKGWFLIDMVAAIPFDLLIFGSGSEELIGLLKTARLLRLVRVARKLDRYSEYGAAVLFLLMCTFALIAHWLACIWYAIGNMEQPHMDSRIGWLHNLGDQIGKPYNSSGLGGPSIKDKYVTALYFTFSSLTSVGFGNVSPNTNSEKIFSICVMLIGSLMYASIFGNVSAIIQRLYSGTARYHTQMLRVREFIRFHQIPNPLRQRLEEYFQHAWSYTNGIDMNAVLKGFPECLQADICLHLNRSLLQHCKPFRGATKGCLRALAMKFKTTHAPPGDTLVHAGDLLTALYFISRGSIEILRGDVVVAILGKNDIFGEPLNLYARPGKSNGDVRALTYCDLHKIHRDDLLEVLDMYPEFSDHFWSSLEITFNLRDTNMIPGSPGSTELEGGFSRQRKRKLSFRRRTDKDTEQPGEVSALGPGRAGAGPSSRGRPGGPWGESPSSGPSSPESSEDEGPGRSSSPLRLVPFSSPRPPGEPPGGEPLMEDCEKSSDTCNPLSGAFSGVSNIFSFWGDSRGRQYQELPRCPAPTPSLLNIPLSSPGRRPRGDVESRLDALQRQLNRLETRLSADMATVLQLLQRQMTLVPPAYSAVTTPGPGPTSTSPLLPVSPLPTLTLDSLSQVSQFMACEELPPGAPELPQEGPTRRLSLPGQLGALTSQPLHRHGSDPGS
# Sequence of Acetylcholinesterase (P22303 whole entry): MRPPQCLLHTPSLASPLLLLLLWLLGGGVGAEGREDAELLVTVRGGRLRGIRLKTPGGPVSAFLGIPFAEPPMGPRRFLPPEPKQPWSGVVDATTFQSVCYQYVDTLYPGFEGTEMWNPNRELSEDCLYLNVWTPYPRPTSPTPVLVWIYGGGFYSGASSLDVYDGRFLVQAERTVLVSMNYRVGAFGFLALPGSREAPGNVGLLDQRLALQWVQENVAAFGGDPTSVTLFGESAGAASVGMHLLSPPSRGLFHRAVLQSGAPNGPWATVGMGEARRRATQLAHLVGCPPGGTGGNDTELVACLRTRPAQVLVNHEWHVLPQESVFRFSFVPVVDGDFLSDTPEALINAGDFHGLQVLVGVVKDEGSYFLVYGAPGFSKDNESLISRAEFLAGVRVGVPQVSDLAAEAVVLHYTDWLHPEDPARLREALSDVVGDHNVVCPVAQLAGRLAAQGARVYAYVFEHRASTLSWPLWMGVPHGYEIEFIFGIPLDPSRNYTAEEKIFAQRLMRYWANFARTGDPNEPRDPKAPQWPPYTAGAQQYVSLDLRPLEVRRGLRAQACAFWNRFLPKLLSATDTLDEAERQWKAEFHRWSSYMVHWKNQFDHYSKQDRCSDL
structure (smiles),measurement,setting,value
COc1cc2c(cc1OC)C(=O)C(CC1(F)CCN(Cc3ccccc3F)CC1)C2 (stereo not given),Ratio IC50,Rattus norvegicus,36900
same,Activity,[1],Non-Toxic
same,IC50,[2],9.23 µM
same,Tmax,[3],30 min
same,Activity,Mus musculus [4],Active
same,AUC(0-inf),[5],256 ng·h/mL
same,AUC(0-t),[6],5840 ng·h/mL
same,Kp,[7],5.4
same,Cmax,[8],1.19 ng/mL
same,half-life,[9],1850 min
same,Activity,[10],Non-Toxic
same,Activity,[11],Non-Toxic
same,Kd,Acetylcholinesterase,3.5 nM
same,half-life,[12],1390 min
same,Tmax,[13],37.8 min
same,Tmax,[14],1.5 h
same,Activity,Mus musculus [15],Active
same,Activity,[16],Non-Toxic
same,half-life,[17],1240 min
same,AUC(0-inf),[18],157 ng·h/mL
same,Tmax,[19],55.2 min
same,Cmax,[20],8.61 ng/mL
same,IC50,Cytochrome P450 2D6,> 30 µM
same,Activity,[21],Non-Toxic
same,Activity,[22],Non-Toxic
same,Activity,Mus musculus [23],Active
same,half-life,[24],1660 min
same,Activity,Mus musculus [25],Active
same,AUC(0-t),[26],1080 ng·h/mL
same,IC50,Cytochrome P450 2C8,> 30 µM
same,Papp at up to 50 µM,[27],0.574 ×10⁻⁶ cm/s
same,Tmax,[28],1.5 h
same,Activity,[29],Non-Toxic
same,fraction unbound,[30],0.031
same,MRT,[31],8.9 h
same,clearance,[32],23.7 mL/min/kg
same,Cmax,[33],16.4 ng/mL
same,MRT inf,[34],23.6 h
same,Vd,[35],6.52 L/kg
same,Cmax,[36],35.7 ng/mL
same,AUC(0-inf),[37],1140 ng·h/mL
same,fraction unbound,[38],0.035
same,MRT,[39],6.81 h
same,Activity,[40],Non-Toxic
same,half-life,[41],250 min
